Assay results taken from ChEMBL document CHEMBL1201862, “PubChem BioAssay data set” (2004).
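Values below derive from 48-hour exposures of cells grown in 96-well plates, with endpoints linearly interpolated between the two concentrations bracketing the appropriate inhibition level. The concentration for 50% growth inhibition is given as GI50.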 Calls of active or inactive are those of the source. Cut-off read from the data, not from the text of the source: active = GI50 up to about 1.1 µM and inactive = higher.

How the values were obtained:
Assay in all cases: NCI anticancer screen, dose series, 48 h
[1] = system: SW-620
[2] = system: PC-3
[3] = system: M14
[4] = system: RXF 393
[5] = system: UACC-62
[6] = system: SNB-19
[7] = system: IGROV-1
[8] = system: UO-31
[9] = system: HL-60
[10] = system: NCI-H226
[11] = system: TK-10
[12] = system: CAKI-1
[13] = system: T47D
[14] = system: MDA-MB-435
[15] = system: HCC 2998
[16] = system: HOP-62
[17] = system: SK-MEL-2
[18] = system: NCI/ADR-RES
[19] = system: HCT-15

Row | SMILES | GI50 [1] | GI50 [2] | GI50 [3] | GI50 [4] | GI50 [5] | GI50 [6] | GI50 [7] | GI50 [8] | GI50 [9] | GI50 [10] | GI50 [11] | GI50 [12] | GI50 [13] | GI50 [14] | GI50 [15] | GI50 [16] | GI50 [17] | GI50 [18] | GI50 [19] [µM]
1 | CC1C2CC(CC(=O)N2)C1(C)C (stereo not drawn) | > 100 µM (inactive) | > 100 µM (inactive) | > 100 µM (inactive) | > 100 µM (inactive) | > 100 µM (inactive) | > 100 µM (inactive) | > 100 µM (inactive) | > 100 µM (inactive) | > 100 µM (inactive) | > 100 µM (inactive) | > 100 µM (inactive) | > 100 µM (inactive) | > 100 µM (inactive) | > 100 µM (inactive) | > 100 µM (inactive) | > 100 µM (inactive) |  |  | 
2 | COc1ccc2c3c1O[C@H]1C(O)CCC4(O)[C@@H](C2)NCC[C@]314 (stereo partly drawn) | > 100 µM (inactive) | > 100 µM (inactive) | > 100 µM (inactive) |  | > 100 µM (inactive) | > 100 µM (inactive) | > 100 µM (inactive) | > 100 µM (inactive) | > 100 µM (inactive) | > 100 µM (inactive) | > 100 µM (inactive) | > 100 µM (inactive) | > 100 µM (inactive) | > 100 µM (inactive) |  | > 100 µM (inactive) | > 100 µM (inactive) | > 100 µM (inactive) | > 100
3 | CC(=O)OCc1c2ccccc2c(C)c2c1cc(F)c1ccccc12 | 20.5 µM (inactive) |  | 34 µM (inactive) | 25.6 µM (inactive) | 20.7 µM (inactive) | 28.9 µM (inactive) | 22.5 µM (inactive) | 38 µM (inactive) | 23 µM (inactive) | 25.9 µM (inactive) | > 100 µM (inactive) | 31 µM (inactive) |  |  | 25.9 µM (inactive) | 45.6 µM (inactive) | 15.2 µM (inactive) |  | 
4 | NCCC(=O)N[C@H](Cc1cc(O)c(O)c(SCC(NC(=O)CC[C@H](N)C(=O)O)C(=O)NCC(=O)O)c1)C(=O)O (stereo partly drawn) | > 50 µM (inactive) | > 50 µM (inactive) | > 50 µM (inactive) | > 50 µM (inactive) | > 50 µM (inactive) | > 50 µM (inactive) | > 50 µM (inactive) | > 50 µM (inactive) |  | > 50 µM (inactive) | > 50 µM (inactive) | > 50 µM (inactive) |  | > 50 µM (inactive) | > 50 µM (inactive) | > 50 µM (inactive) | > 50 µM (inactive) | > 50 µM (inactive) | > 50
5 | COC(=O)/C(C#N)=C1\NC(=O)CC(c2ccccc2)C1C#N (stereo not drawn) | > 100 µM (inactive) | > 100 µM (inactive) | > 100 µM (inactive) | > 100 µM (inactive) | > 100 µM (inactive) | > 100 µM (inactive) | > 100 µM (inactive) | > 100 µM (inactive) | > 100 µM (inactive) | > 100 µM (inactive) | > 100 µM (inactive) | > 100 µM (inactive) | > 100 µM (inactive) |  | > 100 µM (inactive) | > 100 µM (inactive) | > 100 µM (inactive) | > 100 µM (inactive) | > 100
6 | Cc1ccc2c(c1)C(=O)/C(=C1/CCc3ccc(C)cc31)C2 | > 100 µM (inactive) |  | > 100 µM (inactive) | > 100 µM (inactive) | > 100 µM (inactive) | 87.5 µM (inactive) | > 100 µM (inactive) | > 100 µM (inactive) | > 100 µM (inactive) | > 100 µM (inactive) | > 100 µM (inactive) |  | 14.7 µM (inactive) | > 100 µM (inactive) | > 100 µM (inactive) | > 100 µM (inactive) | > 100 µM (inactive) | > 100 µM (inactive) | > 100
7 | NNC(=O)Cn1c2ccc(Br)cc2c2nc3ccccc3nc21 | > 100 µM (inactive) | > 100 µM (inactive) | > 100 µM (inactive) | 23.2 µM (inactive) | 56.5 µM (inactive) | 80 µM (inactive) | 31 µM (inactive) | 19.9 µM (inactive) |  | > 100 µM (inactive) | 56 µM (inactive) | > 100 µM (inactive) | > 100 µM (inactive) | > 100 µM (inactive) |  | 19.8 µM (inactive) | 19.1 µM (inactive) | > 100 µM (inactive) | 
8 | CSC(SC)=C1C(=O)NN=C1C | > 100 µM (inactive) | > 100 µM (inactive) | > 100 µM (inactive) | > 100 µM (inactive) | > 100 µM (inactive) | > 100 µM (inactive) | > 100 µM (inactive) | > 100 µM (inactive) | > 100 µM (inactive) | > 100 µM (inactive) | > 100 µM (inactive) | 89.3 µM (inactive) | > 100 µM (inactive) | > 100 µM (inactive) | > 100 µM (inactive) | > 100 µM (inactive) | > 100 µM (inactive) |  | > 100
